Assay results from patent US7671035B2, “Epidermal growth factor receptor antisense oligonucleotides” (Idera Pharmaceuticals, Inc., priority 2001, dated 2010).
In the oligonucleotide strings, read from the 5' end, every base follows the letter of its sugar. An asterisk marks phosphorothioate; unmarked linkages are phosphodiester. Other units and linkages are bracketed, terminal groups are in braces. A string of capitals states the bases alone. d = 2'-deoxy (DNA)

Tests used:
GEO cells = test: Soft agar growth of GEO cells, antisense MBO in combination with cytotoxic drugs; format: cell-based, human; details: for growth inhibition: soft agar; for growth inhibitory effect in combination with cytotoxic drugs: GEO cells on soft agar, all doses, with each of cisplatin, doxorubicin, paclitaxel, topotecan (FIGS. 5, 6)
Procedure: FIG. 5A is a graphic representation showing the growth inhibitory effects of AS23 (0.01 μM, […], 0.1 μM) in combination with cisplatin on the growth of CEO cells in soft agar. Cells were treated with the indicated concentrations of cytotoxic drug on day 1, followed by the indicated concentrations of EGFR-AS oligonucleotide on each day from day 2 to day 4. Colonies were counted after 10 to 14 days. Data represent the average (±standard deviation) of three different experiments, each performed in triplicate.
The invention also provides a method of potentiating the growth inhibitory effect of a cytotoxin on a cancer cell. In this method, the cell is contacted with an oligonucleotide of the invention, as well as the cytotoxin. For example, the growth inhibitory effects of AS23 and AS24 on cancer cells were examined in combination with four different cytotoxins: cisplatin, doxorubicin, paclitaxel, and topotecan. […] When lower doses of these agents were used, the antiproliferative effect was clearly cooperative. […] The cooperativity quotient of this treatment, defined as the ratio between the actual growth inhibition obtained with cisplatin followed by AS23 MBO and the sum of the growth inhibition achieved by each agent, was approximately 1.8.
Cells (10^4 cells/well) were suspended in 0.5 ml of 0.3% Difco Noble agar (Difco, Detroit, Mich.) supplemented with complete culture medium. This suspension was layered over 0.5 ml of 0.8% agar-medium base layer in 24 multiwell cluster dishes (Becton Dickinson, Lincoln Park, N.J.) and treated on days 1, 2 and 3 with different concentrations of the various EGFR-AS oligonucleotides alone and/or in combination on day 1 with the indicated concentrations of cytotoxic drugs. After 10 to 14 days, cells were stained with nitro blue tetrazolium (Sigma, St. Louis, Mo.) and colonies larger than 0.05 mm were counted.

[1] = test system: human GEO colon cancer cells; test: Soft agar (anchorage-independent) colony growth of GEO cells; format: cell-based; details: read-out: IC50, inhibition of GEO cell soft agar growth
Procedure: Antisense oligonucleotides having SEQ ID NOS: 1-10 were designed and evaluated for the ability to inhibit the anchorage-independent growth of human GEO colon cancer cells. Human cancer cells useful for this study are GEO cells.
The IC50 determined by treatment with these antisense oligonucleotides varied between 0.1 and 0.7 μM. Based on the nucleotide sequence and on the growth inhibitory activity, two sequences (corresponding to AS14 (SEQ 10 NO: 14) and AS22 (SEQ ID NO: 22)) were modified in their backbone structure as hybrid DNA-RNA 20-mer oligonucleotides (AS23 (SEQ ID NO: 23)) and AS24 (SEQ ID NO: 24)) and further characterized for their biological characteristics. GEO cells were grown as colonies in soft agar and treated with different concentrations of the indicated antisense oligonucleotides. IC50 values were obtained from three different experiments, each performed in triplicate.
GEO human colon cancer, OVCAR-3 human ovarian cancer, and ZR-75-1 human breast cancer cell lines were obtained from the American Type Culture Collection, Manassas, Va. (OVCAR, ATCC No. HTB-161; ZR-75-1, ATCC No. CRL-1500). […]
Cells (10^4 cells/well) were suspended in 0.5 ml of 0.3% Difco Noble agar (Difco, Detroit, Mich.) supplemented with complete culture medium. […] After 10 to 14 days, cells were stained with nitro blue tetrazolium (Sigma, St. Louis, Mo.) and colonies larger than 0.05 mm were counted.

p27 [2] = test: Western blot of p27 expression in GEO cells; format: cell-based, human; details: three days, 0.1 and 0.5 μM (FIG. 3A)
Procedure: (§1) Equal amounts (50 μg/lane) of protein extracts were resolved by a 12% SDS-PAGE and probed with an anti-human p27 MAb. Immunoreactive proteins were visualized by enhanced chemiluminescence.
(§2) The ability of EGFR antisense treatment to induce p27 was therefore examined.
(§3) 50 μg total cell lysates from GEO cells, which were treated each day for three days with the indicated concentrations of antisense oligonucleotides, were fractionated through 7.5% or 12% sodium dodecyl sulfate-polyacrylamide gels, transferred to nitrocellulose filters and incubated with an anti-human EGFR mouse MAb or with an anti-human p27 mouse MAb (both antibodies were purchased from Transduction Laboratories, Lexington, Ky.), respectively, followed by horseradish-peroxidase antiserum (Bio-Rad Laboratories, Milano, Italy). Immunoreactive proteins were visualized by enhanced chemiluminescence (Amersham International, England).

p27 [3] = test: Western blot of p27 expression in ZR-75-1 cells; format: cell-based, human; details: three days, 0.1 and 0.5 μM (FIG. 3B)
Procedure: as §1, §2, §3

EGFR = test: Western blot of EGFR expression in GEO cells; format: cell-based, human; details: GEO cells treated three days at 0.1 μM or 0.5 μM, compared to scramble oligonucleotide-treated cells (FIG. 1B)
Procedure: FIG. 1A is a representation of a Western blot showing EGFR expression in GEO cancer cells following treatment with EGFR antisense oligonucleotides. GEO cells were treated for three days with 0.5 μM of the indicated oligonucleotides (AS 5, 6, 7, 8, 9, 10), 0.5 μM, or with 0.5 μM scramble sequence oligonucleotides. Equal amounts (50 μg/lane) of protein extracts were resolved by a 7.5% SDS-PAGE and probed with an anti-human EGFR monoclonal antibody. Immunoreactive proteins were visualized by enhanced chemiluminescence.
FIG. 1B is a representation of a Western blot showing EGFR expression in CEO cells following treatment with EGFR antisense oligonucleotides. GEO cells were treated for three days with AS23 and AS24 oligonucleotides (0.1 or 0.5 μM), respectively; or with 0.5 μM of scramble sequence oligonucleotides. Equal amounts (50 μg/lane) of protein extracts were resolved by a 7.5% SDS-PAGE and probed with an anti-human EGFR monoclonal antibody. Immunoreactive proteins were visualized by enhanced chemiluminescence. […]

| Compound | IC50 [1] [nM] | EGFR protein expression (Western blot) (EGFR) | growth inhibitory effect in combination with cytotoxic drugs (GEO cells) | further results |
| --- | --- | --- | --- | --- |
| N.N.[Cl][Pt][Cl] [cisplatin, CIS-diamminedichloroplatinum, reference compound] |  |  |  | growth inhibition (GEO cells; GEO cells, 0.25 μg/ml cisplatin alone): approximately 20% |
| ACACTGCCTGAGAGTTGCCC (antisense dA*dC*dA*dC*dT*dG*dC*dC*dT*dG*dA*dG*dA*dG*dT*dT*dG*dC*dC*dC) [AS1] | ~3500 |  |  |  |
| CTCTTCTTGACAGTCTGATG (antisense dC*dT*dC*dT*dT*dC*dT*dT*dG*dA*dC*dA*dG*dT*dC*dT*dG*dA*dT*dG) [AS10] | ~500 |  |  |  |
| UAUGATCTGTCACAGCUUGA (phosphorothioate linkages, 2'-O-methyl ribonucleosides, further chemistry not given here) [AS23] |  | almost complete inhibition | supra-additive growth inhibitory effect | p27 expression (Western blot) (p27 [2]): dose-dependent increase in p27 expression; p27 expression (Western blot) (p27 [3]): dose-dependent increase in p27 expression; growth inhibition (GEO cells; GEO cells, 0.05 μM AS23 MBO alone): approximately 20%; inhibition of colony formation in soft agar (GEO cells; GEO cells, combined treatment 0.25 μg/ml cisplatin followed by 0.05 μM AS23 MBO (FIG. 5A)): 70%; cooperativity quotient (GEO cells; ratio of growth inhibition with cisplatin followed by AS23 MBO to the sum of growth inhibition by each agent, GEO cells): approximately 1.8 |
| UGCTAGGTTTCCTCCCUUUC (phosphorothioate linkages, 2'-O-methyl ribonucleosides, further chemistry not given here) [AS24] |  | almost complete inhibition | supra-additive growth inhibitory effect |  |
